{
  "source": "patent US20250263404A1",
  "about": "“AMINOPYRIDINES AS ACTIVATORS OF PI3 KINASE” (UCL Business Ltd, priority 2021, published 2025)",
  "key": {"[1]": {"tested_on": "adult rat dorsal root ganglion (DRG) cultures", "experiment": "Neurite outgrowth in dissociated adult rat DRG cultures", "type": "cell-based", "conditions": "72 h", "excerpt": "Given that there are currently no small molecule clinical-stage treatments routinely used to stimulate neuronal regeneration such as for injury to peripheral nerves, the spinal cord or optic nerves, we explored the potential of PI3Kα activation in this context.\nDorsal root ganglion (DRG) neurons were isolated from adult male (>250 g) Wistar rats as described, with DRGs from each rat cultured separately (Rayner, M. L. D. et al. Anatomical record 301, 1628-1637 (2018)). Following culling via schedule 1 (rising concentration of CO2), the spinal column was removed and stored in PBS on ice. Cord tissue was removed to expose the DRG and roots in the intervertebral foramen and the DRGS removed with forceps and scalpel under a dissecting microscope (Olympus SZ40). DRGs were manually cleaned by removal of roots, capsule and capillaries with forceps and then placed in DMEM supplemented with P/S. DRGs were treated with 0.125% collagenase type IV solution at 37° C. for 90 min, and then mechanically dissociated by trituration using a 1 ml pipette. The collagenase solution was removed by 2 rounds of centrifugation in complete DMEM (DMEM with 1% P/S and 10% FBS) at 400×g for 5 min, followed by resuspension of the DRG cell pellet in complete DMEM supplemented with 0.01 mM cytosine arabinoside. DRGs were plated in 75-cm^2 flasks coated with 0.1 mg/ml poly-D-lysine and incubated at 37° C., 5% CO2. […]"}, "N345K mutant of p110α": {"biological_target": "T1, N345K mutant of p110α (Homo sapiens, UniProt P42336, N345K)", "T1 construct": "Full-length p110α was expressed in a complex with full-length p85α (for biochemistry and HDX-MS); 6xHis followed by TEV protease site (N); made in house; host or cells: Spodoptera frugiperda Sf9 (plasmid OP661)", "T1 sequence (P42336 whole entry N345K)": "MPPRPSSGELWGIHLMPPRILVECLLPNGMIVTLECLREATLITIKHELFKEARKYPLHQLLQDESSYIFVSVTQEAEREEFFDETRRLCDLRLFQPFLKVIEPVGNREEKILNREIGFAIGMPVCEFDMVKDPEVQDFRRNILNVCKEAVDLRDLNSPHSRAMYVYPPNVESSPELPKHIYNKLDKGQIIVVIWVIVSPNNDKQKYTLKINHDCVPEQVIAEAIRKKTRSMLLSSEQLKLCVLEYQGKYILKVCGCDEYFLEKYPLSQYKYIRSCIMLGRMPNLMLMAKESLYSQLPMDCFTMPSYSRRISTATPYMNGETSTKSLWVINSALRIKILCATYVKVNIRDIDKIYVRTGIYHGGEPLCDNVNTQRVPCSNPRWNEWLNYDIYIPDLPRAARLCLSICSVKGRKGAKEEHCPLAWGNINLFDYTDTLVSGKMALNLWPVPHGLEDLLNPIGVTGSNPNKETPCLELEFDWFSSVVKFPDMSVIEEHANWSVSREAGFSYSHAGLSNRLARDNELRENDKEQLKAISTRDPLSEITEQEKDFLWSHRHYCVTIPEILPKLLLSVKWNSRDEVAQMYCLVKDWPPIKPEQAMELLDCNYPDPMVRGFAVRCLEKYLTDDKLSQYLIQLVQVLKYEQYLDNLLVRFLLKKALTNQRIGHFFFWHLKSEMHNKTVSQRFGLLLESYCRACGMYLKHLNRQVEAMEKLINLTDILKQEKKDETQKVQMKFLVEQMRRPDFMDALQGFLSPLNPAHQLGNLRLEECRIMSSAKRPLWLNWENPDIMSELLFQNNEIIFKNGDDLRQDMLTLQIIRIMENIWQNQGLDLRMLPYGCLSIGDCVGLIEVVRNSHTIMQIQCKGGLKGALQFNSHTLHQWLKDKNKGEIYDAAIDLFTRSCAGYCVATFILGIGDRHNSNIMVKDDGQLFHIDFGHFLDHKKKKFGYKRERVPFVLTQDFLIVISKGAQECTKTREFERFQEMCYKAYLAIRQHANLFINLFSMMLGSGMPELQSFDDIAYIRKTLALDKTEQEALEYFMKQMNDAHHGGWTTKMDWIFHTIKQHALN", "T1 sequence (P27986 whole entry partner)": "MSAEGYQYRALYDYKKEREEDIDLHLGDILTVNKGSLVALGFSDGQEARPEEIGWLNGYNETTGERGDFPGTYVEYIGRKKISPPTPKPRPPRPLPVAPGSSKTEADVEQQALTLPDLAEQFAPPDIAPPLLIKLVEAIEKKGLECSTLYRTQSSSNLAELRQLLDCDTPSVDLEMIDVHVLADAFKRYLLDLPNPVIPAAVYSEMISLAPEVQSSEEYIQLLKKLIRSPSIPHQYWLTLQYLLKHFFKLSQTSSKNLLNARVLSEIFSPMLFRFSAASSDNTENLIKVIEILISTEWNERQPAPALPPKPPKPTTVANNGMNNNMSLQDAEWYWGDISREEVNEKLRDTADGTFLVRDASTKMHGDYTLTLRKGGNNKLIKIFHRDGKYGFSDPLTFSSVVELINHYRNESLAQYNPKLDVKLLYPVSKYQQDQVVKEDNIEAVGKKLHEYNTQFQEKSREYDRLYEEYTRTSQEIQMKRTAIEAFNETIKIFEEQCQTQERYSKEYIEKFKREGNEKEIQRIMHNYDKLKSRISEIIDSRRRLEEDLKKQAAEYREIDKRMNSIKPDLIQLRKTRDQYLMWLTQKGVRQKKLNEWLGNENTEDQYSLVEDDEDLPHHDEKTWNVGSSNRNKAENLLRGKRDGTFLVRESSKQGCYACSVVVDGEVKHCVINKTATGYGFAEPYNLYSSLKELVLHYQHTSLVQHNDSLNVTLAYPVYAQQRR", "experiment": "ADP-Glo kinase assay, oncogenic mutant N345K", "type": "biochemical", "conditions": "compared with pY", "protocol": "Co-stimulation of 1938 with pY led to an additive activatory effect for G106V, but not for the N345K and E545K mutants (FIG. 1f/FIG. 22f).\nKinase reactions were performed with ADP-Glo kinase assay kit (Promega Corporation). The enzyme, substrate and compounds were diluted in reaction buffer (20 mM HEPES, 50 mM NaCl, 50 mM KCl, 3 mM MgCl2, 1 mM EGTA, 1 mM TCEP, pH 7.4). Final concentrations of PI3Kα and PI3Kδ used were 25 nM and 50 nM for PI3Kβ. Liposomes (5% brain PI(4,5)P2, 20% brain phosphatidylserine, 45% brain phosphatidylethanolamine, 15% brain phosphatidylcholine, 10% cholesterol, 5% sphingomyelin (Avanti Polar Lipids)) were used at a final concentration of 1 mg/ml. The pY sequence is ESDGG(pY)[…](pY)[…].\nFor characterisation of the effects of 1938 on in vitro PI3K enzymology, all reactions were performed at room temperature with 384 white-polystyrene plates (Corning #3574). The final DMSO concentration in the assay was between 0.5%-1.8%. The reaction mixture contained 2 μl PI3K enzyme, 2 μl compound and/or pY and 2 μl of liposome substrate mixed with ATP. ATP was used at a final concentration of 200 μM, unless otherwise stated. The enzyme and compounds were pre-incubated for 10 min prior to addition of substrate. […] For enzyme kinetic calculations, data was expressed as velocity (pmol of ADP generated/sec). […]"}},
  "data": [
    {"smiles": "CCN1CCN(c2ccc(Nc3cc(Nc4cccc5c4N(C(C)=O)CC5)ccn3)cc2)CC1", "note": "[Example 1938]", "values": [
      {"measurement": "neurite outgrowth", "setting": "[1]; dose-dependent", "result": "significantly increased neurite outgrowth"},
      {"measurement": "total length of neurites", "setting": "[1]; higher 1938 concentrations", "result": "doubling the total length of neurites"},
      {"measurement": "activation of N345K mutant", "setting": "N345K mutant of p110α", "result": "levels comparable with stimulation with pY"}
    ]}
  ]
}
